System: TNF-α and IL-1 secretion
Assay: investigated assays, not specified which (TNF-α/IL-1 secretion in human PBMC and in mouse peritoneal macrophages, LPS-induced TNF-α/IL-1 secretion in mice, writhing assay, LPS-induced shock in mice)
Details: assays not named; active = IC-50 20 μM or lower (PBMC), 10 μM or lower (macrophages), 30% or more inhibition of TNF-α at 10 mg/kg, analgetic activity as acetylsalicylic acid or better, survival 40% or more at 30 mg/kg
Protocol: Human peripheral blood mononuclear cells (PBMC) were prepared from heparinized whole blood after separating PBMC on Ficoll-Paque™Plus (Amersham-Pharmacia). To determine the TNF-α level, 3.5-5×10^4 cells were cultivated in a total volume of 200 μl for 18 to 24 hours on microtitre plates with a flat bottom (96 wells, Falcon) in RPMI 1640 medium, into which there were added 10% FBS (Fetal Bovine Serum, Biowhittaker) previously inactivated at 54° C./30 min, 100 units/ml of penicillin, […] of streptomycin and 20 mM HEPES (GIBCO). The cells were incubated at 37° C. in an atmosphere with 5% CO2 and 90% humidity. […] The IL-1 level was determined in an assay under the same conditions and with the same number of cells and the same concentration of the stimulus by ELISA procedure (R&D Systems). The percentage of inhibition of TNF-α or IL-1 production was calculated by the equation: % inhibition=[1−(TS−NC)/(PC−NC)]*100. […]
In order to obtain peritoneal macrophages, Balb/C mouse strain males, age 8 to 12 weeks, were injected i.p. with 300 μg of zymosan (SIGMA) dissolved in a phosphate buffer (PBS) in a total volume of 0.1 ml/mouse. […] The TNF-α level in the cell supernatant was determined by ELISA procedure (R&D Systems, Biosource). The IL-1 level was determined in an assay identical to the assay for TNF-α by ELISA procedure (R&D Systems). […]

## Dimethyl-[3-(11-methoxy-8-oxa-1-thia-benzo[e]naphtho[3,2-h]azulene-2-ylmethoxy)-propyl]-amine [Example 7]
  activity in at least two investigated assays: show activity in at least two investigated assays

Reference: patent US7262309B2, “1- or 3-thia-benzonaphthoazulenes as inhibitors of tumor necrosis factor production and intermediates for the preparation thereof” (GlaxoSmith Kline Istrazivocki Centar Zagreb, D.O.O., priority 2002, dated 2007)
